Non-standard residues stand in square brackets, D forms with d. Residues, ends and D or L forms follow the SMILES beside them. ξ: configuration not given here. *: point of attachment. ONp = O=[N+]([O-])c1ccc(O*)cc1; ξE = NC(CCC(=O)O)C(=O)O; Cbz = O=C(OCc1ccccc1)*
Columns and labels:
Human TG2 = molecular target: T1, Human TG2 (Homo sapiens, UniProt P21980); parameters: method as in PMID 35158154, PMID 28858494; details: read-out: KM of substrate for TG2; cited from earlier work
T1 construct: made in house
T1 sequence (P21980 1-687): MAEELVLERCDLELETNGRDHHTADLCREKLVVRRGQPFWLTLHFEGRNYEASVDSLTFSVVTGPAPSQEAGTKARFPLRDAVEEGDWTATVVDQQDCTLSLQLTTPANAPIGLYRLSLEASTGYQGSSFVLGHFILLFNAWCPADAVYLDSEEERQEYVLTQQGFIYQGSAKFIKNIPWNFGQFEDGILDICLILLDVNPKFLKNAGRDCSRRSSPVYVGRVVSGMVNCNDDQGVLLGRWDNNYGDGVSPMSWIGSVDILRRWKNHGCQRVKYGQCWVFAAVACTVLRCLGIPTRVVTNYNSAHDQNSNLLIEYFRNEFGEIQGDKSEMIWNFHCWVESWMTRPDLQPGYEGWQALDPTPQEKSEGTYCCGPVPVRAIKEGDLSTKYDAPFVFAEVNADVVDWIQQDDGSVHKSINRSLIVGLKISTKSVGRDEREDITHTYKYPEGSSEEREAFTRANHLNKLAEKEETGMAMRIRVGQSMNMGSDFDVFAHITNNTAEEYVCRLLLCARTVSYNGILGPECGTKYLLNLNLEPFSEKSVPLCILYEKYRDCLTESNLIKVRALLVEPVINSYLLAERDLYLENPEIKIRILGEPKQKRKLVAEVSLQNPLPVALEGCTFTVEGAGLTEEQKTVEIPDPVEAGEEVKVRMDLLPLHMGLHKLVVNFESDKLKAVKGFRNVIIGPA

[1] = molecular target: T2, Thrombin-activated human FXIIIa (Homo sapiens, UniProt P00488); assay: Fluorescence-quenched A101 isopeptidase assay of FXIIIa inhibition kinetics; type: biochemical; details: 0, 100, 200, 320 µM
T2 construct: purchased Zedira GmbH T070
T2 sequence (P00488 39-732 limits assumed): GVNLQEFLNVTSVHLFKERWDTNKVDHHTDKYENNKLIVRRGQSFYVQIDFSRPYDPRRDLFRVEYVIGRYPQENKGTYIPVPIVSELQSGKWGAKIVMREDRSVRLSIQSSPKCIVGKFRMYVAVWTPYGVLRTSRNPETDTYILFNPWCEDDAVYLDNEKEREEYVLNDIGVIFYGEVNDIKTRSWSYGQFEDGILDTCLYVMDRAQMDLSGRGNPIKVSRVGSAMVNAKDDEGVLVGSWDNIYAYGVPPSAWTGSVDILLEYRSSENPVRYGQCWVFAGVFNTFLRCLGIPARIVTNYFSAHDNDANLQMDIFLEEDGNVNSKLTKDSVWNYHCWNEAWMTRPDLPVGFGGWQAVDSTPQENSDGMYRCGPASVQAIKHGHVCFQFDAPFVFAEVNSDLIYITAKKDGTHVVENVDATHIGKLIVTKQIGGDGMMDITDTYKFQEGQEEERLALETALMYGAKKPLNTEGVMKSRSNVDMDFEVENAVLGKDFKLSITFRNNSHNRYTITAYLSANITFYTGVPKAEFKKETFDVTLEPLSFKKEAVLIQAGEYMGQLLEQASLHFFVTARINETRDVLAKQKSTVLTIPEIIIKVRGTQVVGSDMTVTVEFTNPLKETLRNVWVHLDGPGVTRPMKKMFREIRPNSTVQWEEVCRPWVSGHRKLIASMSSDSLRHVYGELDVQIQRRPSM

| Structure (SMILES) | Km (Human TG2) [µM] | traces in FXIIIa A101 inhibition assay (fluorescence interference control) [1] |
| --- | --- | --- |
| O=C(O)CNC(=O)C(CCC(=O)Oc1ccc([N+](=O)[O-])cc1)NC(=O)OCc1ccccc1 (centres unmarked) [AL5, Cbz-Glu(ɣ-p-nitrophenyl ester)Gly-OH] (Cbz-[ξE](ONp)-Gly-OH) | 10 |  |
| CN(C)c1cccc2c(S(N)(=O)=O)cccc12 [Dansyl amide] |  | nearly identical traces as those obtained using the dansylated inhibitor library |
